# In patent publication US9822130B2, “Triazolo-pyrazinyl derivatives useful as soluble guanylate cyclase activators” (Merck Sharp & Dohme Corp., priority 2014, dated 2017):
# Biological target: T1, sGC α1/β1 heterodimer stably expressed in CHO-K1 cell line (CHO-K1/sGC) (Homo sapiens, UniProt Q02108+Q02153)
# T1 construct: expressed in transfected cells
# T1 sequence (Q02108 1-690): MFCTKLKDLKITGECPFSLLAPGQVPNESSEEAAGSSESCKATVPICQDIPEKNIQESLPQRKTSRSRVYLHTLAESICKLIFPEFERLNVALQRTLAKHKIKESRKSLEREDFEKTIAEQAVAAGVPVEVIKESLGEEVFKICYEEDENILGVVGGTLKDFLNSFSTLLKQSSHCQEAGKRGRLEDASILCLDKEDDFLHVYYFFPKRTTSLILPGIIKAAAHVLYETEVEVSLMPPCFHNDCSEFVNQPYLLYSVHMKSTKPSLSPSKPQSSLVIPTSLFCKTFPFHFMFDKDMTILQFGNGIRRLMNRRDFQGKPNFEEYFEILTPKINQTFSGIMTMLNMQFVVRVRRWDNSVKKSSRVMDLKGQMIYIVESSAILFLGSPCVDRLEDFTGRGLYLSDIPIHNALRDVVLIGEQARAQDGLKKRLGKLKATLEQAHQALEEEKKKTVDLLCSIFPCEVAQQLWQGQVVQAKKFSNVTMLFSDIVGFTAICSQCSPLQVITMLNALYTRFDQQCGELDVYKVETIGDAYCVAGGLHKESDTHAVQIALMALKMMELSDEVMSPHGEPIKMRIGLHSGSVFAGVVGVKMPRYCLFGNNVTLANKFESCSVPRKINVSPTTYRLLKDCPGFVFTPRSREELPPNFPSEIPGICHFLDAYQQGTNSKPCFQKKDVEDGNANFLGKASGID
# T1 sequence (Q02153 1-619): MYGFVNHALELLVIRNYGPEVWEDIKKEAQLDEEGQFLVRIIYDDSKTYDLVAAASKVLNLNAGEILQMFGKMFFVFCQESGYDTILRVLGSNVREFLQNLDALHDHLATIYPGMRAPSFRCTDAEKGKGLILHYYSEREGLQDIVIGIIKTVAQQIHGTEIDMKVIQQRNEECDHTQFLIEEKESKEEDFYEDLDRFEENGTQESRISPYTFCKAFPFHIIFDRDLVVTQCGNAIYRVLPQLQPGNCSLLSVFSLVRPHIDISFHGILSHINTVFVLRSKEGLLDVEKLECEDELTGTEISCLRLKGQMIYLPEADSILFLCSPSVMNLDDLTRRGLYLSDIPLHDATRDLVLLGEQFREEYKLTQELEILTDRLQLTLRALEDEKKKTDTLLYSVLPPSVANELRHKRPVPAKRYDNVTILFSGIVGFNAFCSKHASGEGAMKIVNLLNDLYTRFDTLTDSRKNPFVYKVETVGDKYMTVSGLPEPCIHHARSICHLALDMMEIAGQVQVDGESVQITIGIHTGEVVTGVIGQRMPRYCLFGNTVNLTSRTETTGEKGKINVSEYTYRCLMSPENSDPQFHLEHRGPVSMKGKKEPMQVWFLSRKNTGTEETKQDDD
# Experiment: Cell-based sGC Functional Assay (CASA Assay), cGMP generation
# Conditions: CHO-K1/sGC cells, 1 hr at 37° C., cGMP by HTRF, 4P fit; presence or absence of 1 μM DETA-NO not given; read-out: IP (nM) (inflection point)
# Outline: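 Readout is HTRF cGMP in lysates, normalised to the maximal response of reference sGC activator Compound A (100%), with a 4P fit giving IP and fold induction. Cells were CHO-K1/sGC (human α1/β1) in EBSS buffer with IBMX, incubated 1 hr at 37° C with compound. Run with and without 1 μM DETA-NO; final DMSO 2.5%.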
row,EC50,SMILES
1,370 nM,"CC1(c2ccc(O)cn2)C(=O)Nc2nc(-c3cn4ncnc4c(CCCC(F)(F)F)n3)nc(N)c21 (stereo not shown) [Example 111A, 4-amino-5-(5-hydroxypyridin-2-yl)-5-methyl-2-(8-(4,4,4-trifluorobutyl)-[1,2,4]triazolo[1,5-a]pyrazin-6-yl)-5H-pyrrolo[2,3-d]pyrimidin-6(7H)-one]"
2,183 nM,C[C@@]1(c2ccc(F)cc2)C(=O)Nc2nc(-c3cn4ncnc4c(CCCC(F)(F)F)n3)nc(O)c21 [Example 135A]
3,278 nM,"Nc1nc(-c2cn3ncnc3c(CCCC(F)(F)F)n2)nc2c1C(c1ccc(Cl)cn1)(C1CC1)C(=O)N2 (stereo not shown) [Example 27A, 4-amino-5-(5-chloropyridin-2-yl)-5-cyclopropyl-2-(8-(4,4,4-trifluorobutyl)-[1,2,4]triazolo[1,5-a]pyrazin-6-yl)-5H-pyrrolo[2,3-d]pyrimidin-6(7H)-one]"
4,384 nM,"CCCc1nc(-c2nc(N)c3c(n2)NC(=O)C3(c2ccc(C(F)(F)F)cn2)C2CC2)cn2ncnc12 (stereo not shown) [Example 56A, 4-amino-5-cyclopropyl-2-(8-propyl-[1,2,4]triazolo[1,5-a]pyrazin-6-yl)-5-(5-(trifluoromethyl)pyridin-2-yl)-5H-pyrrolo[2,3-d]pyrimidin-6(7H)-one]"
5,86.1 nM,"CC1(c2nnc(C3CC3)o2)C(=O)Nc2nc(-c3cn4ncnc4c(CCC(F)(F)C(F)(F)F)n3)nc(N)c21 (stereo not shown) [Example 98B, 4-amino-5-(5-cyclopropyl-1,3,4-oxadiazol-2-yl)-5-methyl-2-(8-(3,3,4,4,4-pentafluorobutyl)-[1,2,4]triazolo[1,5-a]pyrazin-6-yl)-5H-pyrrolo[2,3-d]pyrimidin-6(7H)-one]"
6,134 nM,"Nc1nc(-c2cn3ncnc3c(CCC(F)(F)C(F)(F)F)n2)nc2c1C(c1cn(C3CC3)nn1)(C1CC1)C(=O)N2 (stereo not shown) [Example 96B, 4-amino-5-cyclopropyl-5-(1-cyclopropyl-1H-1,2,3-triazol-4-yl)-2-(8-(3,3,4,4,4-pentafluorobutyl)-[1,2,4]triazolo[1,5-a]pyrazin-6-yl)-5H-pyrrolo[2,3-d]pyrimidin-6(7H)-one]"
7,711 nM,"CCCc1nc(-c2nc(O)c3c(n2)NC(=O)C3(C)c2ccc(Cl)c(F)c2)cn2ncnc12 (stereo not shown) [Example 166B, 5-(4-chloro-3-fluorophenyl)-4-hydroxy-5-methyl-2-(8-propyl-[1,2,4]triazolo[1,5-a]pyrazin-6-yl)-5H-pyrrolo[2,3-d]pyrimidin-6(7H)-one]"
8,55.7 nM,"CC1(c2ccc(F)c(F)c2)C(=O)Nc2nc(-c3cn4ncnc4c(CCC(F)(F)F)n3)nc(N)c21 (stereo not shown) [Example 84B, 4-amino-5-(3,4-difluorophenyl)-5-methyl-2-(8-(3,3,3-trifluoropropyl)-[1,2,4]triazolo[1,5-a]pyrazin-6-yl)-5H-pyrrolo[2,3-d]pyrimidin-6(7H)-one]"

# More lines, now with the values behind:
row,SMILES,EC50
1,"CC(C)Cc1nc(-c2nc(N)c3c(n2)NC(=O)[C@@]3(C)c2ccc(F)cc2)cn2ncnc12 [Example 73A, (S)-4-amino-5-(4-fluorophenyl)-2-(8-isobutyl-[1,2,4]triazolo[1,5-a]pyrazin-6-yl)-5-methyl-5,7-dihydro-6H-pyrrolo[2,3-d]pyrimidin-6-one]",44.1 nM
2,"CC1(c2ccc(C(F)(F)F)cn2)C(=O)Nc2nc(-c3cn4ncnc4c(CCCC(F)(F)F)n3)nc(N)c21 (stereo not shown) [Example 25B, 4-amino-5-methyl-2-(8-(4,4,4-trifluorobutyl)-[1,2,4]triazolo[1,5-a]pyrazin-6-yl)-5-(5-(trifluoromethyl)pyridin-2-yl)-5H-pyrrolo[2,3-d]pyrimidin-6(7H)-one]",27 nM
3,"CC1(c2ccc(Cl)cn2)C(=O)Nc2nc(-c3cn4ncnc4c(CCC(F)(F)F)n3)nc(N)c21 (stereo not shown) [Example 79A, 4-amino-5-(5-chloropyridin-2-yl)-5-methyl-2-(8-(3,3,3-trifluoropropyl)-[1,2,4]triazolo[1,5-a]pyrazin-6-yl)-5H-pyrrolo[2,3-d]pyrimidin-6(7H)-one]",325 nM
4,"C[C@@]1(c2ccc(F)cc2)C(=O)Nc2nc(-c3cn4ncnc4c(CCC(F)(F)F)n3)ncc21 [Example 174A, (S)-5-(4-fluorophenyl)-5-methyl-2-(8-(3,3,3-trifluoropropyl)-[1,2,4]triazolo[1,5-a]pyrazin-6-yl)-5,7-dihydro-6H-pyrrolo[2,3-d]pyrimidin-6-one]",1350 nM
5,"Nc1nc(-c2cn3ncnc3c(CCCC(F)(F)F)n2)nc2c1C(c1ncc(Cl)cn1)(C1CC1)C(=O)N2 (stereo not shown) [Example 41A, 4-amino-5-(5-chloropyrimidin-2-yl)-5-cyclopropyl-2-(8-(4,4,4-trifluorobutyl)-[1,2,4]triazolo[1,5-a]pyrazin-6-yl)-5H-pyrrolo[2,3-d]pyrimidin-6(7H)-one]",27.8 nM
6,"CC1(c2ccc(Cl)c(F)c2)C(=O)Nc2nc(-c3cn4ncnc4c(CCC(F)(F)C(F)(F)F)n3)nc(N)c21 (stereo not shown) [Example 5B, 4-amino-5-(4-chloro-3-fluorophenyl)-5-methyl-2-(8-(3,3,4,4,4-pentafluorobutyl)-[1,2,4]triazolo[1,5-a]pyrazin-6-yl)-5H-pyrrolo[2,3-d]pyrimidin-6(7H)-one]",20.9 nM
7,"CC1(c2ccc(C(F)(F)F)cc2)C(=O)Nc2nc(-c3cn4ncnc4c(CCC(F)(F)F)n3)nc(N)c21 (stereo not shown) [Example 77B, 4-amino-5-methyl-5-(4-(trifluoromethyl)phenyl)-2-(8-(3,3,3-trifluoropropyl)-[1,2,4]triazolo[1,5-a]pyrazin-6-yl)-5H-pyrrolo[2,3-d]pyrimidin-6(7H)-one]",333 nM
8,"CC1(c2ccc(F)c(F)c2)C(=O)Nc2nc(-c3cn4ncnc4c(CCCC(F)(F)F)n3)nc(O)c21 (stereo not shown) [Example 146B, 5-(3,4-difluorophenyl)-4-hydroxy-5-methyl-2-(8-(4,4,4-trifluorobutyl)-[1,2,4]triazolo[1,5-a]pyrazin-6-yl)-5H-pyrrolo[2,3-d]pyrimidin-6(7H)-one]",45.5 nM
9,"CC1(c2ccc(C(F)F)cn2)C(=O)Nc2nc(-c3cn4ncnc4c(CCCC(F)(F)F)n3)nc(O)c21 (stereo not shown) [Example 181A, 4-hydroxy-5-(5-(difluoromethyl)pyridin-2-yl)-5-methyl-2-(8-(4,4,4-trifluorobutyl)-[1,2,4]triazolo[1,5-a]pyrazin-6-yl)-5H-pyrrolo[2,3-d]pyrimidin-6(7H)-one]",749 nM
10,"Nc1nc(-c2cn3ncnc3c(CCCC(F)(F)F)n2)nc2c1C(c1ccc(Cl)c(F)c1)(C1CC1)C(=O)N2 (stereo not shown) [Example 33A, 4-amino-5-(4-chloro-3-fluorophenyl)-5-cyclopropyl-2-(8-(4,4,4-trifluorobutyl)-[1,2,4]triazolo[1,5-a]pyrazin-6-yl)-5H-pyrrolo[2,3-d]pyrimidin-6(7H)-one]",5.6 nM
11,"CC1(c2ccccc2)C(=O)Nc2nc(-c3cn4ncnc4c(CCCC(F)(F)F)n3)nc(N)c21 (stereo not shown) [Example 37B, 4-amino-5-methyl-5-phenyl-2-(8-(4,4,4-trifluorobutyl)-[1,2,4]triazolo[1,5-a]pyrazin-6-yl)-5H-pyrrolo[2,3-d]pyrimidin-6(7H)-one]",11.5 nM
12,"CC1(c2nnc(C(F)F)o2)C(=O)Nc2nc(-c3cn4ncnc4c(CCCC(F)(F)F)n3)nc(N)c21 (stereo not shown) [Example 100A, 4-amino-5-(5-(difluoromethyl)-1,3,4-oxadiazol-2-yl)-5-methyl-2-(8-(4,4,4-trifluorobutyl)-[1,2,4]triazolo[1,5-a]pyrazin-6-yl)-5H-pyrrolo[2,3-d]pyrimidin-6(7H)-one]",127 nM
13,"Cc1nc2c(CCC(F)(F)C(F)(F)F)nc(-c3nc(N)c4c(n3)NC(=O)[C@@]4(C)c3ccc(F)cc3)cn2n1 [Example 88B, (S)-4-amino-5-(4-fluorophenyl)-5-methyl-2-(2-methyl-8-(3,3,4,4,4-pentafluorobutyl)-[1,2,4]triazolo[1,5-a]pyrazin-6-yl)-5H-pyrrolo[2,3-d]pyrimidin-6(7H)-one]",65 nM
14,"CCCc1nc(-c2nc(O)c3c(n2)NC(=O)C3(C)c2ccc(Cl)cc2)cn2ncnc12 (stereo not shown) [Example 164A, 5-(4-chlorophenyl)-4-hydroxy-5-methyl-2-(8-propyl-[1,2,4]triazolo[1,5-a]pyrazin-6-yl)-5H-pyrrolo[2,3-d]pyrimidin-6(7H)-one]",780 nM
